Experimental findings from patent US20030220280A1, “Schwann cell bridge implants and phosphodiesterase inhibitors to stimulate CNS nerve regeneration” (priority 2002, published 2003) are described below.

What all share (type): in vivo, rat
Experiment [1] has as its system rats with a moderate contusion injury at thoracic cord segment 8. The experiment can be described thus: Gridwalk test for fine locomotor performance after moderate contusion injury. As to conditions: FIG. 4; 8 weeks after moderate contusion; 1 m gridwalk, maximum 20 errors. The source says: FIG. 4 compares footfall errors in a gridwalking analysis 8 weeks after a moderate contusion injury by weight drop (NYU impactor, 12.5 mm height) followed by db-cAMP administration plus Schwann cell transplantation with or without rolipram. Each treatment used 4 injection sites, 2-3 mm rostral and caudal to the injury site and on either side of the midline. A. Non-injured control; B. 1 week post-injury 2×10^6 Schwann cells injected into the injury site with saline; C. 1 week post-injury 2×10^6 Schwann cells injected with 4×0.2 μL×1 mM db-cAMP; D. 1 week post-injury 2×10^6 Schwann cells with 4×0.2 μL×50 mM db-cAMP; E. 1 day post-injury 2×10^6 Schwann cells with 4×0.2 μL×50 mM db-cAMP; F. animals received rolipram by minipump starting within 30 minutes of the injury (0.07 μmol/kg/hr for 2 weeks after injury) and 1 week later 2×10^6 Schwann cells with 4×0.2 μL×50 mM db-cAMP.
(§1) Adult rats (Fischer rats, Charles River Laboratories, 3-5 months old) were injured in the thoracic level of the spinal cord with the NYU weight drop device (NYU impactor) as described in Gruner (1992), and rolipram (0.07 μmol/kg/hr) was administered for two weeks. […]
The number of footfall errors that the animal makes is recorded (maximum is 20, 1 per leg per space between each bar) with higher scores indicating a poor ability to perform the tasks.

The test system is the same in experiment [2]. The experiment can be described thus: BBB test of hindlimb locomotion after moderate contusion injury with Schwann cell injection. The following applies: FIG. 3, tested weekly. As for the experimental part: FIG. 3 compares the effects over time of db-cAMP injection and rolipram on BBB scores of rats receiving Schwann cell transplantation after receiving moderate contusion injury to the spinal cord by weight drop (NYU impactor, 12.5 mm height). Each treatment used 4 injection sites, 2-3 mm rostral and caudal to the injury site and on either side of the midline. Diamonds: 2×10^6 Schwann cells were injected into the injury site with saline injection one week post-injury; squares: 2×10^6 Schwann cells with 0.2 μL×1 mM db-cAMP (four injections) one week postinjury; triangles: 2×10^6 Schwann cells with 0.2 μL×50 mM db-cAMP (four injections) one week post-injury; crosses: 2×10^6 Schwann cells with 0.2 μL×50 mM […] (four injections) one day post-injury; circles: animals received rolipram by minipump starting within 30 minutes of the injury (0.07 μmol/kg/hr for 2 weeks after injury) and 1 week later Schwann cells with 0.2 μL×50 mM db-cAMP (four injections).
as §1

Experiment [3] concerns rats with a complete spinal cord transection at thoracic cord segment 8. As to the kind of experiment: BBB test of hindlimb locomotion after complete spinal cord transection with Schwann cell bridge. The following applies: rolipram by minipump 0.07 μmol/kg/hr for two weeks, assessed weekly. The source says:
Schwann cells were purified in culture from adult rat sciatic nerve (according to the methods described by Morrissey, Kleitman and Bunge (1991)). The purity of the Schwann cells used for transplantation was between 95 and 98%.
For Schwann cell bridges, cells were suspended in matrigel/DMEM (30:70) and drawn into 3-8 mm long polymer guidance channels at a density of 120×10^6 cells/ml, as described by Xu et al. (1997). During implantation into adult rats (Fischer rats, Charles River Laboratories, 3-5 months old), each cut stump of the severed spinal cord was inserted 1 mm into the channel. Sometimes the Schwann cell cable is transplanted without the guidance channel. Either method, with or without the channel, is readily accomplished by persons who have performed this procedure a number of times and so have gained adequate expertise to accomplish this.
Spinal cords of adult rats were completely transected by surgery at the T8 cord level and the next caudal segment was removed. At the time of transection, a Schwann cell bridge was implanted at the injury site, 50 mM db-cAMP was injected (0.2 μl) or infused (5 μl) into the proximal and distal stump of the lesion and rolipram was delivered subcutaneously via minipump at 0.07 μmol/kg/hr for two weeks. […] Animals were assessed on a weekly basis for hindlimb locomotion, a measure of motor recovery, using the BBB test. […]

For experiment [4], the system named is rats with a moderate contusion injury at thoracic cord segment 8. As to the kind of experiment: Footprint analysis after moderate contusion injury. As to conditions: FIGS. 5-7; 8 weeks after moderate contusion; conditioned locomotion. As for the experimental part:
FIG. 5 compares stride length in a footprint analysis conducted 8 weeks after a moderate contusion injury by weight drop followed by db-cAMP administration plus Schwann cell transplantation with or without rolipram. Each treatment used 4 injection sites, 2-3 mm rostral and caudal to the injury site and on either side of the midline. A. Non-injured control; B. 1 week post-injury 2×10^6 Schwann cells injected into the injury site with saline; C. […]
FIGS. 5, 6 and 7 illustrate the locomotor patterns of injured rats that received various treatments, tested by inking both the fore- and hind-paws (different colors), allowing them to walk 1 m on an enclosed, flat runway and then analyzing the footprints. Recorded parameters from 8 consecutive steps included the animal's stride length (measured between the central pads of two consecutive prints on each side of the animal), base of support (determined by measuring the distance between the central pads of the hindpaws), and hindfoot outward rotation. […]

As for `CCCC(=O)Nc1ncnc2c1ncn2[C@@H]1O[C@@H]2COP(=O)(O)O[C@H]2[C@H]1OC(=O)CCC` [db-cAMP, dibutyryl-cAMP], the “ability to perform fine motor tasks (footfall errors on gridwalk)” value in experiment [1] is on record as “exhibited many more errors”. Besides, the “hindlimb locomotion (BBB test)” value in experiment [2] is recorded as “not observed”; in experiment [3] (FIG. 1, db-cAMP injected (0.2 μl) into both stumps), “not observed”; in experiment [3] (FIG. 2, db-cAMP infused (5 μl) into both stumps), “not observed”. Further, the “outward foot rotation in footprint analysis” value in experiment [4] is given as “did not exhibit a similar level of recovery”. Besides, the “trunk stability (base of support) in footprint analysis” value in experiment [4] is on record as “did not exhibit a similar level of recovery”.
